Assay results published in the NIST ThermoML archive (doi:10.1021/je501106d).

Settings: for speed of sound: Brillouin scattering; for vapor or sublimation pressure: Closed cell (Static) method

CCCCCCC [heptane]
speed of sound [m/s], Liquid
Settings | 1000 kPa | 2500 kPa | 4000 kPa | 5500 kPa | 7000 kPa | 8500 kPa
302.15 K | 1112.9 | 1126.4 | 1139 | 1152 | 1163.2 | 1174.3
318.15 K | 1054.1 | 1066.6 | 1079 | 1091 | 1102 | 1113
333.15 K | 997.8 | 1010 | 1022 | 1034 | 1045 | 1057
348.15 K | 940.3 | 952.9 | 965.3 | 977.6 | 989.7 | 1002
363.15 K | 881.6 | 895.3 | 908.8 | 922 | 934.9 | 947.6
378.15 K | 821.8 | 837.2 | 852.2 | 866.8 | 881 | 894.7
393.15 K | 760.8 | 778.7 | 795.8 | 812.2 | 827.9 | 842.9
408.15 K | 698.6 | 719.6 | 739.4 | 758.2 | 775.8 | 792.2
418.15 K | 656.6 | 680 | 701.9 | 722.4 | 741.5 | 759.1
428.15 K | 614 | 640.1 | 664.4 | 686.9 | 707.6 | 726.4
438.15 K | 570.9 | 600 | 626.9 | 651.6 | 674 | 694.3
448.15 K | 527.2 | 559.7 | 589.5 | 616.6 | 640.9 | 662.6
453.15 K | 505.2 | 539.5 | 570.8 | 599.1 | 624.5 | 647
458.15 K | 483.1 | 519.2 | 552.1 | 581.7 | 608.2 | 631.4
463.15 K | – | 498.9 | 533.4 | 564.4 | 592 | 616
468.15 K | – | 478.5 | 514.7 | 547.2 | 559.8 | 600.8
473.15 K | – | 458 | 496 | 530 | 543.9 | 570.6
478.15 K | – | 437.5 | 477.4 | 512 | 528.1 | 555.7
483.15 K | – | 416.9 | 458.7 | 495.7 | 512.3 | 540.9
488.15 K | – | 396.3 | 440 | 478.7 | 496.7 | 526.3
493.15 K | – | 375.7 | 421.4 | 461.7 | – | –
498.15 K | – | 354.9 | 402.8 | 444.8 | – | –
503.15 K | – | 334.2 | 384.1 | 428 | – | –
508.15 K | – | 313.3 | 365.5 | 411.2 | – | –
513.15 K | – | 292.4 | 346.9 | 394.5 | – | –
518.15 K | – | 271.5 | 328.3 | 377.8 | – | –
523.15 K | – | – | 309.7 | 361.2 | – | –
528.15 K | – | – | 291.1 | 344.6 | – | –

Settings | speed of sound, Gas [m/s] | speed of sound, Liquid [m/s] | vapor or sublimation pressure, Liquid [kPa]
302.15 K | – | 1108 | 12
318.15 K | – | 1042 | 31
333.15 K | – | 981.5 | 50
348.15 K | – | 921.1 | 84
363.15 K | – | 861.2 | 116
378.15 K | – | 801.6 | 152
393.15 K | – | 742.3 | 204
408.15 K | 170.3 | 683.1 | 286
418.15 K | 168.1 | 643.5 | 352
428.15 K | 165.9 | 603.9 | 441
438.15 K | 163.4 | 564 | 535
448.15 K | 160.5 | 523.9 | 654
453.15 K | 158.8 | 503.6 | 711
458.15 K | 157 | 483.3 | 780
463.15 K | 155 | 462.8 | 853
468.15 K | 152.8 | 442.2 | 935
473.15 K | 150.3 | 421.3 | 1022
478.15 K | 147.5 | 400.3 | 1114
483.15 K | 144.5 | 379 | 1203
488.15 K | 141.2 | 357.4 | 1307
493.15 K | 137.5 | 335.4 | 1409
498.15 K | 133.4 | 313 | 1532
503.15 K | 129 | 290.1 | 1649
508.15 K | 124.1 | 266.6 | 1781
513.15 K | 118.7 | 242.4 | 1910
518.15 K | 112.8 | 217.3 | 2049
523.15 K | 106.4 | 190.9 | 2201
528.15 K | 99.37 | 162.7 | 2358
533.15 K | 91.71 | 131.9 | 2519
536.15 K | 86.78 | 111.1 | 2630
